{"source": "patent US20080269052A1", "about": "“USE of PYRIDINE-2-OXY-3-CARBOXAMIDES AS SAFENERS” (priority 2007, published 2008)", "format_in_all_cases": "in vivo", "key": {"Hordeum vulgare (barley) [1]": {"tested_on": "Hordeum vulgare (barley)", "experiment": "Post-emergence herbicide action and safener action, barley", "details": "safener (Ia) 100 g of AS/ha, HORVU", "description": "(§1) The damage to the plants is scored visually using a scale of 0-100%, in comparison to control plants: 0%=no noticeable effect compared to the untreated plant 100%=the treated plants dies. Seeds or rhizome pieces of monocotyledonous and dicotyledonous harmful plants and crop plants are placed in sandy loam soil in plastic pots, covered with soil and cultivated in the greenhouse under good growth conditions. Alternatively, harmful plants encountered in paddy rice cultivation are cultivated in pots in which the surface of the soil is covered by up to 2 cm of water. Ten to twenty days after sowing, the test plants are treated at the one to three-leaf stage. The herbicide/safener active compound combinations according to the invention, formulated as water-soluble powders or suspensions, and in parallel tests the individual active compounds formulated in a corresponding manner, are sprayed at various dosages at a water application rate of 300 l/ha (converted) onto the green parts of the plants, and, after the test plants were left to stand in the greenhouse for about 2 to 3 weeks under optimum growth conditions, the effect of the preparations is scored visually in comparison to untreated controls. In the case of rice or harmful plants encountered in the cultivation of rice, the active compounds are also added directly to the irrigation water (application analogously to the so-called granule application) or sprayed onto the plants and into the irrigation water."}, "[2]": {"tested_on": "economically important harmful plants (weed grases and broad-leaved weeds)", "experiment": "Post-emergence herbicide action against harmful plants in the presence of safener", "details": "in combination with safener", "description": "as §1"}, "Hordeum vulgare (barley) [3]": {"tested_on": "Hordeum vulgare (barley)", "experiment": "Seed treatment with safeners, barley", "details": "HORVU", "description": "(§2) The damage to the plants is scored visually using a scale of 0-100%, in comparison to control plants: 0%=no noticeable effect compared to the untreated plant 100%=the treated plants dies. Seeds of crop plants were mixed in bottles with the safeners according to the invention, formulated as suspension or emulsion concentrates, and water, and the mixture was shaken well so that the seeds were coated evenly with the formulation of the safener in question. The seeds or the emerged plants were then tested with herbicides in the pre- or post-emergence method according to the tests of examples 3.3 and 3.2, respectively."}, "Oryza sativa (rice) [4]": {"tested_on": "Oryza sativa (rice)", "experiment": "Pre-emergence herbicide action and safener action, rice", "details": "herbicide (2.2.16) oxadiazon 400 g of AS/ha, safener (Ia) 75 g of AS/ha, ORYSA", "description": "(§3) The damage to the plants is scored visually using a scale of 0-100%, in comparison to control plants: 0%=no noticeable effect compared to the untreated plant 100%=the treated plants dies. Seeds or rhizome pieces of monocotyledonous and dicotyledonous weed plants and crop plants were placed in sandy loam soil in plastic pots and covered with soil. The herbicide/safener active compound combinations according to the invention, formulated as water-soluble powders or suspensions, and in parallel tests the individual active compounds formulated in a corresponding manner, were then, at various dosages at a water application rate of 300 to 800 l/ha (converted), applied to the surface of the covering soil. After the treatment, the pots were placed in the greenhouse and kept under good growth conditions for the weeds and the crop plants. Visual scoring of the plant damage or emergence damage was carried out after the test plants had emerged after a test period of 2 to 4 weeks, in comparison to untreated controls."}, "[5]": {"tested_on": "economically important harmful plants (weed grases and broad-leaved weeds)", "experiment": "Pre-emergence herbicide action against harmful plants in the presence of safener", "details": "in combination with safener", "description": "as §3"}, "[6]": {"tested_on": "Triticum aestivum (spring wheat)", "experiment": "Post-emergence herbicide action and safener action, spring wheat", "details": "TRZAS", "description": "as §1"}, "Zea mays (corn) [7]": {"tested_on": "Zea mays (corn)", "experiment": "Pre-emergence herbicide action and safener action, corn", "details": "ZEAMX", "description": "as §3"}, "[8]": {"tested_on": "Triticum aestivum (spring wheat)", "experiment": "Seed treatment with safeners, spring wheat", "details": "safener (Ia) 1.0 g of AS/kg seed, TRZAS", "description": "as §2"}, "Oryza sativa (rice) [9]": {"tested_on": "Oryza sativa (rice)", "experiment": "Post-emergence herbicide action and safener action, rice", "details": "ORYSA", "description": "as §1"}, "Zea mays (corn) [10]": {"tested_on": "Zea mays (corn)", "experiment": "Seed treatment with safeners, corn", "details": "ZEAMX", "description": "as §2"}, "Zea mays (corn) [11]": {"tested_on": "Zea mays (corn)", "experiment": "Post-emergence herbicide action and safener action, corn", "details": "safener (Ia) 50 g of AS/ha, ZEAMX", "description": "as §1"}, "[12]": {"details": "herbicide (1.2.1.58) thiencarbazone-methyl 15 g of AS/ha"}}}
{"smiles": "NC(=O)c1ccc(C(F)(F)F)[nH]c1=O", "note": "[safener (Ia), 2-oxo-6-trifluoromethyl-1,2-dihydropyridine-3-carboxamide]", "values": [{"measurement": "Reduction of the harmful effect", "setting": "Hordeum vulgare (barley) [1]; herbicide (1.1.1.10) tembotrione 20 g of AS/ha", "result": "category A (category A = 50-100% reduction of the harmful action)"}, {"measurement": "Reduction of the harmful effect", "setting": "Hordeum vulgare (barley) [1]; [12]", "result": "category A (category A = 50-100% reduction of the harmful action)"}, {"measurement": "Reduction of the harmful effect", "setting": "Hordeum vulgare (barley) [1]; herbicide (1.3.1.20c) fenoxaprop-P-ethyl 400 g of AS/ha", "result": "category A (category A = 50-100% reduction of the harmful action)"}, {"measurement": "action of the herbicide against economically important harmful plants", "setting": "[2]", "result": "not, or not substantially, adversely affected"}, {"measurement": "Reduction of the harmful effect", "setting": "Hordeum vulgare (barley) [3]; herbicide (1.2.1.14) mesosulfuron-methyl 30 g of AS/ha, safener (Ia) 0.5 g of AS/kg seed", "result": "category A (category A = 50-100% reduction of the harmful action)"}, {"measurement": "Reduction of the harmful effect", "setting": "Hordeum vulgare (barley) [3]; herbicide (1.2.1.58) thiencarbazone-methyl 15 g of AS/ha, safener (Ia) 1.0 g of AS/kg seed", "result": "category A (category A = 50-100% reduction of the harmful action)"}, {"measurement": "Reduction of the harmful effect", "setting": "Oryza sativa (rice) [4]", "result": "category B (category B = 20-49% reduction of the harmful action)"}, {"measurement": "action of the respective herbicide against economically important harmful plants", "setting": "[5]", "result": "not, or not substantially, adversely affected"}, {"measurement": "Reduction of the harmful effect", "setting": "[6]; herbicide (1.1.1.10) tembotrione 20 g of AS/ha, safener (Ia) 80 g of AS/ha", "result": "category A (category A = 50-100% reduction of the harmful action)"}, {"measurement": "Reduction of the harmful effect", "setting": "[6]; herbicide (1.1.2.10) picolinafen 200 g of AS/ha, safener (Ia) 100 g of AS/ha", "result": "category A (category A = 50-100% reduction of the harmful action)"}, {"measurement": "Reduction of the harmful effect", "setting": "[6]; herbicide (1.2.1.14) mesosulfuron-methyl 40 g of AS/ha, safener (Ia) 80 g of AS/ha", "result": "category A (category A = 50-100% reduction of the harmful action)"}, {"measurement": "Reduction of the harmful effect", "setting": "[6]; herbicide (1.2.1.58) thiencarbazone-methyl 15 g of AS/ha, safener (Ia) 100 g of AS/ha", "result": "category A (category A = 50-100% reduction of the harmful action)"}, {"measurement": "Reduction of the harmful effect", "setting": "[6]; herbicide (1.3.1.20c) fenoxaprop-P-ethyl 100 g of AS/ha, safener (Ia) 20 g of AS/ha", "result": "category A (category A = 50-100% reduction of the harmful action)"}, {"measurement": "Reduction of the harmful effect", "setting": "[6]; herbicide (2.2.12) flumioxazin 100 g of AS/ha, safener (Ia) 50 g of AS/ha", "result": "category B (category B = 20-49% reduction of the harmful action)"}, {"measurement": "Reduction of the harmful effect", "setting": "Zea mays (corn) [7]; herbicide (1.1.1.22) isoxaflutole 300 g of AS/ha, safener (Ia) 300 g of AS/ha", "result": "category A (category A = 50-100% reduction of the harmful action)"}, {"measurement": "Reduction of the harmful effect", "setting": "Zea mays (corn) [7]; herbicide (1.4.4.17) flufenacet 125 g of AS/ha, safener (Ia) 150 g of AS/ha", "result": "category A (category A = 50-100% reduction of the harmful action)"}, {"measurement": "Reduction of the harmful effect", "setting": "[8]; herbicide (1.2.1.14) mesosulfuron-methyl 30 g of AS/ha", "result": "category A (category A = 50-100% reduction of the harmful action)"}, {"measurement": "Reduction of the harmful effect", "setting": "[8]; [12]", "result": "category A (category A = 50-100% reduction of the harmful action)"}, {"measurement": "Reduction of the harmful effect", "setting": "Oryza sativa (rice) [9]; herbicide (1.1.1.4) mesotrione 400 g of AS/ha, safener (Ia) 75 g of AS/ha", "result": "category A (category A = 50-100% reduction of the harmful action)"}, {"measurement": "Reduction of the harmful effect", "setting": "Oryza sativa (rice) [9]; herbicide (1.1.1.4) mesotrione 600 g of AS/ha, applied to the water around the test plants (paddy rice conditions), safener (Ia) 75 g of AS/ha", "result": "category A (category A = 50-100% reduction of the harmful action)"}, {"measurement": "Reduction of the harmful effect", "setting": "Oryza sativa (rice) [9]; herbicide (1.2.1.15) foramsulfuron 15 g of AS/ha, safener (Ia) 100 g of AS/ha", "result": "category B (category B = 20-49% reduction of the harmful action)"}, {"measurement": "Reduction of the harmful effect", "setting": "Oryza sativa (rice) [9]; herbicide (1.2.1.58) thiencarbazone-methyl 10 g of AS/ha, safener (Ia) 300 g of AS/ha", "result": "category A (category A = 50-100% reduction of the harmful action)"}, {"measurement": "Reduction of the harmful effect", "setting": "Oryza sativa (rice) [9]; herbicide (1.2.1.62b) bispyribac-sodium 200 g of AS/ha, safener (Ia) 75 g of AS/ha", "result": "category A (category A = 50-100% reduction of the harmful action)"}, {"measurement": "Reduction of the harmful effect", "setting": "Oryza sativa (rice) [9]; herbicide (1.3.1.20c) fenoxaprop-P-ethyl 100 g of AS/ha, safener (Ia) 300 g of AS/ha", "result": "category A (category A = 50-100% reduction of the harmful action)"}, {"measurement": "Reduction of the harmful effect", "setting": "Oryza sativa (rice) [9]; herbicides (1.2.1.14) mesosulfuron-methyl + (1.2.1.11b) iodosulfuron-methyl-sodium 4 + 0.8 g of AS/ha, safener (Ia) 150 g of AS/ha", "result": "category A (category A = 50-100% reduction of the harmful action)"}, {"measurement": "Reduction of the harmful effect", "setting": "Zea mays (corn) [10]; herbicide (1.1.1.22) isoxaflutole 200 g of AS/ha, safener (Ia) 0.5 g of AS/kg seed", "result": "category A (category A = 50-100% reduction of the harmful action)"}, {"measurement": "Reduction of the harmful effect", "setting": "Zea mays (corn) [10]; herbicide (1.2.1.58) thiencarbazone-methyl 5 g of AS/ha, safener (Ia) 1.0 g of AS/kg seed", "result": "category A (category A = 50-100% reduction of the harmful action)"}, {"measurement": "Reduction of the harmful effect", "setting": "Zea mays (corn) [11]; herbicide (1.2.1.11b) iodosulfuron-methyl-sodium 100 g of AS/ha", "result": "category B (category B = 20-49% reduction of the harmful action)"}, {"measurement": "Reduction of the harmful effect", "setting": "Zea mays (corn) [11]; herbicide (1.2.1.48) imazethapyr 100 g of AS/ha", "result": "category A (category A = 50-100% reduction of the harmful action)"}, {"measurement": "Reduction of the harmful effect", "setting": "Zea mays (corn) [11]; herbicide (2.2.12) flumioxazin 50 g of AS/ha", "result": "category A (category A = 50-100% reduction of the harmful action)"}]}
{"smiles": "NC(=O)c1ccc(C(F)(F)Cl)[nH]c1=O", "note": "[safener (Ib), 2-oxo-6-difluorochloromethyl-1,2-dihydropyridine-3-carboxamide]", "values": [{"measurement": "action of the herbicide against economically important harmful plants", "setting": "[2]", "result": "not, or not substantially, adversely affected"}, {"measurement": "action of the respective herbicide against economically important harmful plants", "setting": "[5]", "result": "not, or not substantially, adversely affected"}]}
{"smiles": "NC(=O)c1ccc(C(F)F)nc1O", "note": "[safener (Ic), 2-oxo-6-difluoromethyl-1,2-dihydropyridine-3-carboxamide]", "values": [{"measurement": "action of the herbicide against economically important harmful plants", "setting": "[2]", "result": "not, or not substantially, adversely affected"}, {"measurement": "action of the respective herbicide against economically important harmful plants", "setting": "[5]", "result": "not, or not substantially, adversely affected"}]}
